Reference: publication PMC9057277 (RSC Advances, 2020)
Where two headings read alike, the source gives them in different places. Blank lines part the entries; values can stand above or below the compound they belong to.

How the values were obtained:
recombinant human COX-2 = target: T1, recombinant human COX-2 (Homo sapiens, UniProt P35354); assay: COX Fluorescent Inhibitor Screening Assay Kit, COX-2; type: biochemical
T1 construct: purchased Cayman Chemical, Ann Arbor, MI 700100
T1 sequence (P35354 18-604): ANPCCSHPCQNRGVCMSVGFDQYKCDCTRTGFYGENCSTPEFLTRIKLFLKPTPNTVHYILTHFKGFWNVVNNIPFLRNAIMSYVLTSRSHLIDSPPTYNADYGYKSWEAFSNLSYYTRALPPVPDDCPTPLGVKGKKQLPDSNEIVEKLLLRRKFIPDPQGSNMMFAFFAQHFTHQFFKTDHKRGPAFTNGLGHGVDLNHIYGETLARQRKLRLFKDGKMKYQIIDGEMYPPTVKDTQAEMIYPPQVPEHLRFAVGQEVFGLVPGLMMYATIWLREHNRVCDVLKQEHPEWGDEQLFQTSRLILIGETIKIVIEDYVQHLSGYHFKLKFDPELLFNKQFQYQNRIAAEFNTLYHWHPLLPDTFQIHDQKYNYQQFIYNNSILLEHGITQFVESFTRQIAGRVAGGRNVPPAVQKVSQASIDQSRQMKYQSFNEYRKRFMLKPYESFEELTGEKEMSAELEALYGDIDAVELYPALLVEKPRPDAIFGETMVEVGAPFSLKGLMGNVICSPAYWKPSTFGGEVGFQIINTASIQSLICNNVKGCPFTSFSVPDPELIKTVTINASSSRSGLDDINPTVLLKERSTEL

COX-1 = test system: COX-1; design: method as in PMID 21900596; details: 14C-based COX assay, previously reported by Uddin et al. ref 21; cited from earlier work
COX-2 = test system: COX-2; design: method as in PMID 21900596; details: cited from earlier work
purified ovine COX-1 = target: T2, purified ovine COX-1 (Ovis aries, UniProt P05979); assay: COX Fluorescent Inhibitor Screening Assay Kit, COX-1
T2 sequence (P05979 25-600): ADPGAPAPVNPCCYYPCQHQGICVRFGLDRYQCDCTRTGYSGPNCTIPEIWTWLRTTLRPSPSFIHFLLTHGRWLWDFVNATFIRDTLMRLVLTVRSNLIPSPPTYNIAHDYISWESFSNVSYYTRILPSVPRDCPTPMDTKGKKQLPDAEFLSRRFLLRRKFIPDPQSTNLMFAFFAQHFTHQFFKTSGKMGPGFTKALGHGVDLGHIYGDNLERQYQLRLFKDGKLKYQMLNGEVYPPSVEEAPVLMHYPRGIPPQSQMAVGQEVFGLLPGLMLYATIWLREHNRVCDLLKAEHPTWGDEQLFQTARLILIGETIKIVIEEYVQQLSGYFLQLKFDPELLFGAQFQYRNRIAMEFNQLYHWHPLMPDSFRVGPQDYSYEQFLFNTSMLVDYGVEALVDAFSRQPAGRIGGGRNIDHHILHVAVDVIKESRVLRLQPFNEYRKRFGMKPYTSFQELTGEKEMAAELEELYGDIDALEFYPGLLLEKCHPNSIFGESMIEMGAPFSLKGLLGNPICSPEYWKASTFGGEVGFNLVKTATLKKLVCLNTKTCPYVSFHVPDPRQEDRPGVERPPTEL
Experimental: 7.4.1 COX inhibition assay
The COX inhibition potency against ovine COX-1 and human COX-2 was determined using the
fluorescence-based COX assay ’COX Fluorescent Inhibitor Screening Assay Kit‘ (catalog number
reported by us.7 In brief, as a measure of COX mediated conversion of arachidonic acid to PG H2 in the
presence of different inhibitor concentrations this assay utilizes the peroxidase component of COX and
analyzes the formation of fluorescent resorufin. All compounds were assayed in a concentration range
of 10 nM to 100 μM, and every inhibitor concentration was assayed in duplicate.
as internal control. IC50 values were estimated using a nonlinear logistic regression ﬁtting procedure
(sigmoidal dose−response model) with Prism Software.

[1] = target: 3-phosphoinositide-dependent kinase 1 (PDK1); details: cited from earlier work
protein kinase B (PKB) = target: protein kinase B (PKB); design: method as in PMID 16757698, PMID 14973075; details: ref 50 and 53; cited from earlier work
[2] = target: phosphodiesterase-5 (PDE51A); design: method as in PMID 17383621; details: ref 54; cited from earlier work
[3] = target: sarcoplasmic/ER Ca2+ ATPase (SERCA); design: method as in PMID 23875171, PMID 12076251; details: ref 49 and 55; cited from earlier work
hCA-IX = test system: hCA-IX; design: method as in PMID 23875171, PMID 16290146; details: ref 49 and 56; cited from earlier work
hCA-XII = test system: hCA-XII; design: method as in PMID 23875171, PMID 16290146; details: ref 49 and 56; cited from earlier work
CYP3A4 = test system: CYP3A4; design: method as in PMID 10681375, PMID 22336956; details: ref 12,51; cited from earlier work
[4] = design: method as in PMID 30072617; details: male baboon, 90 min p.i. ref 18; cited from earlier work
log D7.4 by HPLC method = type: physicochemical; details: HPLC retention on ODP-50 4B column (Shodex Asahipak); pH 7.4, HPLC-based method
[5] = Ex vivo biodistribution in healthy rats; details: for Biodistribution BAT: brown adipose tissue; for Biodistribution WAT: white adipose tissue
[6] = Metabolic stability in vivo: blood clearance, blood components, radiometabolites; design: species or system male Wistar rats; details: for half-life: male, Wistar, rat, arterial blood, iv, 70 MBq, i.v., arterial blood samples; for half-life / Intact compound in blood plasma: rats; for Intact compound in blood plasma: radio-HPLC
[7] = Stability towards liver microsomes of mice; details: oxidative conditions plus MgCl2 5 mM, alamethicin 50 μg/mL, UDPGA 5 mM
[8] = i.v., 5 min p.i., n = 8, mean ± SD
[9] = i.v., 60 min p.i., n = 8, mean ± SD

IC50 (recombinant human COX-2): 0.51 µM
Selectivity index (recombinant human COX-2; IC50 (COX-1)/IC50 (COX-2)): >196
IC50 (purified ovine COX-1): > 100 µM
Structure (SMILES): Cc1ccc(-c2cc(CF)nn2-c2ccc(S(C)(=O)=O)cc2)cc1 [5a]
IC50 (COX-1): > 4 µM
IC50 (COX-2; 14C-based COX assay, previously reported by Uddin et al. ref 21): 0.6 µM
Selectivity index (COX-2; IC50 (COX-1)/IC50 (COX-2), from values previously reported by Uddin et al. ref 21): >7

Structure (SMILES): Cc1ccc(-c2cc(C(F)(F)F)nn2-c2ccc(S(N)(=O)=O)cc2)cc1 [Celecoxib]
IC50 ([1]; ref 52): 3.5 µM
IC50 ([1]; ref 53): 48 µM
IC50 (protein kinase B (PKB)): 28 µM
IC50 [2]: 16 µM
IC50 [3]: 35 µM
IC50 (hCA-IX): 0.016 µM
IC50 (hCA-XII): 0.018 µM
extent of metabolism to the hydroxyl form by CYP3A4 (CYP3A4): < 25%

Structure (SMILES): [11CH3]c1ccc(-c2cc(C(F)(F)F)nn2-c2ccc(S(N)(=O)=O)cc2)cc1 [[^11C]celecoxib]
intact radiotracer in blood [4]: 17%

chromatographic logD (log D7.4 by HPLC method): 2.65
liver-to-bladder ratio (hepatobiliary vs renal excretion) ([5]; 60 min p.i.): 2.6
Biodistribution BAT [5, 8]: 2.79 ± 0.85 SUV
Biodistribution BAT [5, 9]: 1.12 ± 0.22 SUV
Biodistribution adrenals [5, 8]: 2.95 ± 0.73 SUV
Biodistribution blood [5, 8]: 0.32 ± 0.02 SUV
Biodistribution brain [5, 8]: 0.5 ± 0.1 SUV
Biodistribution femur [5, 8]: 0.6 ± 0.05 SUV
Biodistribution harderian gland [5, 8]: 2.37 ± 0.19 SUV
Biodistribution heart [5, 8]: 0.86 ± 0.07 SUV
Biodistribution intestine [5, 8]: 14.17 ± 1.43 %ID
Biodistribution kidneys [5, 8]: 2 ± 0.42 SUV
Biodistribution liver [5, 8]: 3.37 ± 0.63 SUV
Biodistribution lung [5, 8]: 1.06 ± 0.06 SUV
Biodistribution muscle [5, 8]: 0.63 ± 0.09 SUV
Biodistribution pancreas [5, 8]: 1.6 ± 0.16 SUV
Biodistribution skin & hair [5, 8]: 0.98 ± 0.09 SUV
Biodistribution spleen [5, 8]: 0.84 ± 0.12 SUV
Biodistribution stomach [5, 8]: 1.35 ± 0.6 %ID
Biodistribution testes [5, 8]: 0.47 ± 0.05 SUV
Biodistribution thymus [5, 8]: 1.09 ± 0.23 SUV
Biodistribution thyroid gland [5, 8]: 1.01 ± 0.1 SUV
Biodistribution urine (calc.) [5, 8]: 0.02 ± 1.08 %ID
Biodistribution adrenals [5, 9]: 0.9 ± 0.13 SUV
Biodistribution blood [5, 9]: 0.08 ± 0.02 SUV
Biodistribution brain [5, 9]: 0.09 ± 0.01 SUV
Biodistribution femur (femur uptake, 18F-defluorination) [5, 9]: 1.0 ± 0.2 SUV
Biodistribution harderian gland [5, 9]: 1.08 ± 0.18 SUV
Biodistribution heart [5, 9]: 0.18 ± 0.02 SUV
Biodistribution intestine [5, 9]: 41.52 ± 3.98 %ID
Biodistribution kidneys [5, 9]: 0.57 ± 0.14 SUV
Biodistribution liver [5, 9]: 0.74 ± 0.14 SUV
Biodistribution lung [5, 9]: 0.25 ± 0.04 SUV
Biodistribution muscle [5, 9]: 0.23 ± 0.05 SUV
Biodistribution pancreas [5, 9]: 0.57 ± 0.14 SUV
Biodistribution skin & hair [5, 9]: 0.32 ± 0.09 SUV
Biodistribution spleen [5, 9]: 0.28 ± 0.08 SUV
Biodistribution stomach [5, 9]: 0.94 ± 0.58 %ID
Biodistribution testes [5, 9]: 0.24 ± 0.06 SUV
Biodistribution thymus [5, 9]: 0.23 ± 0.04 SUV
Biodistribution thyroid gland [5, 9]: 0.27 ± 0.06 SUV
Biodistribution urine (calc.) [5, 9]: 15.85 ± 2.16 %ID
Biodistribution WAT [5, 8]: 1.73 ± 0.84 SUV
Biodistribution WAT [5, 9]: 1.81 ± 0.8 SUV
half-life ([6]; read-out: t1/2 distribution (blood clearance of intact compound)): 1 min
half-life ([6]; read-out: t1/2 elimination (blood clearance of intact compound)): 20.7 min
Radioactivity distribution in blood components: erythrocytes ([6]; rat blood, 60 min p.i., + TCA): 23%
Radioactivity distribution in blood components: plasma ([6]; rat blood, 60 min p.i., + TCA): 71%
Radioactivity distribution in blood components: plasma supernatant ([6]; rat blood, 60 min p.i., + TCA): 35%
Radioactivity distribution in blood components: plasma pellet (bound to plasma proteins) ([6]; rat blood, 60 min p.i., + TCA precipitation): 29%
Radioactivity distribution in blood components: erythrocytes ([6]; rat blood, 60 min p.i., - TCA): 21%
Radioactivity distribution in blood components: plasma ([6]; rat blood, 60 min p.i., - TCA): 67%
Radioactivity distribution in blood components: plasma pellet ([6]; rat blood, 60 min p.i., - TCA): 1%
Radioactivity distribution in blood components: plasma supernatant ([6]; rat blood, 60 min p.i., - TCA): 72%
Intact compound in blood plasma ([6]; 20 min p.i.): 35%
Intact compound in blood plasma ([6]; 60 min p.i.): 30%
glucuronidation in murine liver microsomes [7]: not observed
Structure (SMILES): Cc1ccc(-c2cc(CC[18F])nn2-c2ccc(S(C)(=O)=O)cc2)cc1 [[^18F]5b]
